This is an account of results in US20170157143A1, “NORPREGNANE DERIVATIVES FOR THE RISK REDUCTION OF BREAST CANCER” (Helix Twelve Pharmaceuticals Corporation, Inc., priority 2015, published 2017).

In series [1] the test system is breast carcinoma. Put plainly: HLX-801 prophylactic therapy against breast cancer in at-risk subject groups compared to tamoxifen. The series is classed as in vivo, human. On the procedure: Table 1: Exemplary effect of HLX-801 prophylactic therapy against breast cancer cells in at-risk subject groups compared to Tamoxifen (“TAM”) 1 mg.
The nature of series [2]: Side effect profile of HLX-801. Particulars: in vivo. The source says: The compounds are associated with the absence of the side effects that currently limit the adoption of the currently available tamoxifen and aromatase inhibition approaches by at risk individuals.
The subject of series [3] is breast cancer. Particulars: DCIS patients; cited from earlier work.

For the molecule `CCN(CC)Cc1ccc(OCC[C@H]2CCC3C4[C@H](C)Cc5cc(O)ccc5[C@H]4CC[C@@]32C)c(OC)c1` (stereo partly drawn) [HLX-801, (7α)-21-[4-[(diethylamino)methyl]-2-methoxyphenoxy]-7-methyl-19-norpregna-1,3,5(10)-trien-3-ol 2-hydroxy-1,2,3-propanetricarboxylate], the “No. of subjects developing breast carcinoma” value in series [1] (HLX-801 1 mg, patients group 7/17) was found to be 3; in series [1] (HLX-801 1 mg, patients group 7/21), 2; in series [1] (HLX-801 1 mg, patients group 7/24), 3; in series [1] (HLX-801 5 mg, patients group 7/17) it was 1; in series [1] (HLX-801 5 mg, patients group 7/21), 2; in series [1] (HLX-801 5 mg, patients group 7/24), 2. The “No. of subjects developing breast carcinoma” value in series [1] (HLX-801 10 mg, patients group 7/17) is reported as 1; in series [1] (HLX-801 10 mg, patients group 7/21), 1; in series [1] (HLX-801 10 mg, patients group 7/24) it was 1; in series [1] (HLX-801 20 mg, patients group 7/17), 1; in series [1] (HLX-801 20 mg, patients group 7/21) it was 1; in series [1] (HLX-801 20 mg, patients group 7/24), 1. Moreover, the “No. of subjects developing breast carcinoma” value in series [1] (HLX-801 40 mg, patients group 7/17) stood at 1; in series [1] (HLX-801 40 mg, patients group 7/21) it was 1; in series [1] (HLX-801 40 mg, patients group 7/24), 1; in series [1] (HLX-801 80 mg, patients group 7/17), 1; in series [1] (HLX-801 80 mg, patients group 7/21), 1; in series [1] (HLX-801 80 mg, patients group 7/24), 1. For the same molecule, the “bone loss (long-term risk of fractures)” value in series [2] was “no evidence of bone loss”. Also, the muscle aches result in series [2] was “no reports of muscle aches”. In series [2], the “uterine thickening (indicator of risk for treatment-induced uterine cancer)” value is on record as “no evidence of uterine thickening”. Further, the “venous thrombembolism (indicator of risk for stroke)” value in series [2] is listed as “no evidence of venous thrombembolism”.
With `CC/C(=C(\c1ccccc1)c1ccc(OCCN(C)C)cc1)c1ccccc1` [TAM, Tamoxifen, reference compound], in series [3], the “reduction of the risk to progression to breast cancer” value is 30%. Besides, the “No. of subjects developing breast carcinoma” value came to 12 in series [1] (TAM 1 mg, patients group 7/17); 11 in series [1] (TAM 1 mg, patients group 7/21); 12 in series [1] (TAM 1 mg, patients group 7/24 (# of cohorts/# of subjects per cohort)).
